Measured values reported in US10898537B2, “Transdermal formulations for delivery of capsaicinoids” (DELIVRA INC., priority 2015, dated 2021).

Test: PAMPA assay, flux of capsaicin and osthole from buffer solutions with penetration enhancers (Experiments 1 and 2)
Format: in vitro ADME
Description: A. Preparation of Standards:
1 mg/mL stock solutions of polygodial, tetrahydropiperine (Cosmoperine™), osthole, dimethylisosorbide (DMI), Tazmanian Mountain Pepper (TMP), capsaicin and warfarin were prepared in methanol and stored at −20 ° C.
Prisma buffer preparation: Added 1.25 mL of Prisma™ HT buffer to 48.75 mL distilled water. Adjusted to pH 7.0 by adding 0.5 M NaOH dropwise.
50 μg/mL solutions of capsaicin, warfarin and osthole were prepared by adding 50 μL of the 1 mg/mL solutions to 950 μL of MeOH:H2O (50:50).
Donor Well Solutions: Experiment 1—Polygodial, Osthole and Capsaicin with DMI and THP
Preparation of Capsaicin Solutions:
5 μg/mL solution of capsaicin was prepared in Prisma™ buffer solution by adding 5 μL of 1 mg/mL solution of capsaicin to 0.995 mL Prisma™ buffer.
5 μg/mL of capsaicin+5 μg/mL solution of DMI was prepared in Prisma™ buffer solution by adding 5 μL of 1 mg/mL of DMI and 5 μL of 1 mg/mL of capsaicin solution to 0.990 mL Prisma™ buffer.
5 μg/mL of capsaicin+5 μg/mL solution of THP was prepared in Prisma™ buffer solution by adding 5 μL of 1 mg/mL of THP and 5 μL of 1 mg/mL of capsaicin solution to 0.990 mL Prisma™ buffer.
Preparation of Osthole Solutions:
5 μg/mL solution of osthole was prepared in Prisma™ buffer solution by adding 5 μL of 1 mg/mL solution of osthole to 0.995 mL Prisma™ buffer.
5 μg/mL of osthole+5 μg/mL solution of DMI was prepared in Prisma™ buffer solution by adding 5 μL of 1 mg/mL of DMI and 5 μL of 1 mg/mL of osthole solution to 0.990 mL Prisma™ buffer.
5 μg/mL of osthole+5 μg/mL solution of THP was prepared in Prisma™ buffer solution by adding 5 μL of 1 mg/mL of THP and 5 μL of 1 mg/mL of osthole solution to 0.990 mL Prisma™ buffer.
Donor Well Solutions: Experiment 2—Osthole and Capsaicin with Polygodial, TMP and THP
5 μg/mL solution of capsaicin was prepared in Prisma™ buffer solution by adding 5 μL of 1 mg/mL solution of capsaicin to 0.995 mL Prisma™ buffer. (Solution A)
5 μg/mL of capsaicin+5 μg/mL solution of polygodial was prepared in Prisma™ buffer solution by adding 5 μL of 1 mg/mL of polygodial and 5 μL of 1 mg/mL of capsaicin solution to 0.990 mL Prisma™ buffer. (Solution B)
5 μg/mL of capsaicin+5 μg/mL solution of TMP was prepared in Prisma™ buffer solution by adding 5 μL of 1 mg/mL of TMP and 5 μL of 1 mg/mL of capsaicin solution to 0.990 mL Prisma™ buffer. (Solution C)
5 μg/mL of capsaicin+5 μg/mL TMP+5 μg/mL solution of tetrahydropiperine was prepared in Prisma™ buffer solution by adding 5 μL of 1 mg/mL of TMP and 5 μL of 1 mg/mL tetrahydropiperine and 5 μL of 1 mg/mL of capsaicin solution to 0.985 mL Prisma™ buffer. (Solution D)
5 μg/mL of capsaicin+5 μg/mL solution of tetrahydropiperine was prepared in Prisma™ buffer solution by adding 5 μL of 1 mg/mL of tetrahydropiperine and 5 μL of 1 mg/mL of capsaicin solution to 0.990 mL Prisma™ buffer. (Solution E)
5 μg/mL solution of osthole was prepared in Prisma™ buffer solution by adding 5 μL of 1 mg/mL solution of osthole to 0.995 mL Prisma™ buffer. (Solution F)
5 μg/mL of osthole+5 μg/mL solution of polygodial was prepared in Prisma™ buffer solution by adding 5 μL of 1 mg/mL of polygodial and 5 μL of 1 mg/mL of osthole solution to 0.990 mL Prisma™ buffer. (Solution G)
5 μg/mL of osthole+5 μg/mL solution of TMP was prepared in Prisma™ buffer solution by adding 5 μL of 1 mg/mL of TMP and 5 μL of 1 mg/mL of osthole solution to 0.990 mL Prisma™ buffer. (Solution H)
5 μg/mL of osthole+5 μg/mL TMP+5 μg/mL solution of tetrahydropiperine was prepared in Prisma™ buffer solution by adding 5 μL of 1 mg/mL of TMP and 5 μL of 1 mg/mL tetrahydropiperine and 5 μL of 1 mg/mL of osthole solution to 0.985 mL Prisma™ buffer. (Solution I)
5 μg/mL of osthole+5 μg/mL solution of tetrahydropiperine was prepared in Prisma™ buffer solution by adding 5 μL of 1 mg/mL of tetrahydropiperine and 5 μL of 1 mg/mL of osthole solution to 0.990 mL Prisma™ buffer. (Solution J) […]

SMILES: CO[C@H]1CO[C@H]2[C@@H]1OC[C@H]2OC [DMI, Dimethyl Isosorbide]
- effect of penetration enhancer on capsaicin flux in the PAMPA system (Experiment 1, vs capsaicin alone over five hours): neither penetration enhancer demonstrated a statistically significant increase in capsaicin flux
- effect of penetration enhancer on osthole flux in the PAMPA system (Experiment 1, vs osthole alone over five hours): No observable enhancement

SMILES: COc1ccc2ccc(=O)oc2c1CC=C(C)C [osthole]
- concentration quantified in the acceptor well (alone, donor 5 μg/mL, 2.0 hours): 0.004 µg/mL
- concentration quantified in the acceptor well (alone, donor 5 μg/mL, 2.5 hours): 0.089 µg/mL
- concentration quantified in the acceptor well (alone, donor 5 μg/mL, 5.0 hours): 0.445 µg/mL
- concentration quantified in the acceptor well (with equimass DMI (5 μg/mL), 2.0 hours): 0.095 µg/mL
- concentration quantified in the acceptor well (with equimass DMI (5 μg/mL), 2.5 hours): 0.232 µg/mL
- concentration quantified in the acceptor well (with equimass DMI (5 μg/mL), 5.0 hours): 0.51 µg/mL
- concentration quantified in the acceptor well (with equimass THP (5 μg/mL), 2.0 hours): 0.261 µg/mL
- concentration quantified in the acceptor well (with equimass THP (5 μg/mL), 2.5 hours): 0.324 µg/mL
- concentration quantified in the acceptor well (with equimass THP (5 μg/mL), 5.0 hours): 0.549 µg/mL

SMILES: CC1(C)CCC[C@]2(C)[C@@H](C=O)C(C=O)=CC[C@@H]12 [polygodial]
- effect of natural penetration enhancer on capsaicin flux in the PAMPA system (PAMPA): appear to decreased the flux rate of capsaicin
